Laboratory results: PMC12071706, “Impact of SARS-CoV-2 RBM Mutations N501Y and E484K on ACE2 Binding: A Combined Computational and Experimental Study” (International Journal of Molecular Sciences, 2025)

Target: T1, human ACE2 protein (hACE2) (Homo sapiens, UniProt Q9BYF1)
T1 construct: His; purchased AbClonal (Woburn, MA, USA) RP01277; host or cells: HEK293
Assay: biochemical
Format: binding

T1 sequence (Q9BYF1 18-740): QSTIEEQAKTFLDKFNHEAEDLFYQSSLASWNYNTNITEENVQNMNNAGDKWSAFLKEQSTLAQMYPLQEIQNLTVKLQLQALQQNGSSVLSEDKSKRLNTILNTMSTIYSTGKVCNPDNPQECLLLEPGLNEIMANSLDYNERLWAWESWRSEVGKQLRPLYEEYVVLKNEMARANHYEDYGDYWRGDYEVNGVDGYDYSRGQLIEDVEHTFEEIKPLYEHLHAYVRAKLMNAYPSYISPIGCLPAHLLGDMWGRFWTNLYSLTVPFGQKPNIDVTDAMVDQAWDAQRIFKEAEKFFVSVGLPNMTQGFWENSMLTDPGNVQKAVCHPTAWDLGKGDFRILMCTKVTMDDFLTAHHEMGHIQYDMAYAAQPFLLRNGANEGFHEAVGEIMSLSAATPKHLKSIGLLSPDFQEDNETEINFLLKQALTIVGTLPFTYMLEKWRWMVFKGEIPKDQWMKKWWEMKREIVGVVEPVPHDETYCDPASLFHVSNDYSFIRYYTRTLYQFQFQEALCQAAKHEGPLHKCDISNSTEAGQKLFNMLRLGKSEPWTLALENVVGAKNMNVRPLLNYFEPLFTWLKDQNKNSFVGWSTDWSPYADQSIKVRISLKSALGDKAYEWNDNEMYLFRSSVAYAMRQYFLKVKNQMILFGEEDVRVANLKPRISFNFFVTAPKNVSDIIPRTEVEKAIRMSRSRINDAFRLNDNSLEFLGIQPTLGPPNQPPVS

| Compound | Kd [nM] | N (stoichiometry) (pH 7.4) | fold increase in binding affinity (pH 7.4) [fold] | thermodynamic signature (enthalpic vs entropic contribution) (pH 7.4) | ΔGITC (pH 7.4) [kcal/mol] | ΔHITC (pH 7.4) [kcal/mol] | −TΔSITC (pH 7.4) [kcal/mol] |
| --- | --- | --- | --- | --- | --- | --- | --- |
| CC(=O)NCC(=O)N[C@H](C(=O)N[C@@H](CCCCN)C(=O)NCC(=O)N[C@@H](Cc1ccccc1)C(=O)N[C@@H](CC(N)=O)C(=O)N[C@@H](CS)C(=O)N[C@@H](Cc1ccc(O)cc1)C(=O)N[C@@H](Cc1ccccc1)C(=O)N1CCC[C@H]1C(=O)N[C@@H](CC(C)C)C(=O)N[C@@H](CCC(N)=O)C(=O)N[C@@H](CO)C(=O)N[C@@H](Cc1ccc(O)cc1)C(=O)NCC(=O)N[C@@H](Cc1ccccc1)C(=O)N[C@@H](CCC(N)=O)C(=O)N1CCC[C@H]1C(=O)N[C@H](C(=O)N[C@@H](Cc1ccc(O)cc1)C(=O)NCC(N)=O)[C@@H](C)O)C(C)C [Beta/Gamma] | 310 ± 80 | – | – | – | – | – | – |
| CC(=O)NCC(=O)N[C@H](C(=O)N[C@@H](CCCCN)C(=O)NCC(=O)N[C@@H](Cc1ccccc1)C(=O)N[C@@H](CC(N)=O)C(=O)N[C@@H](CS)C(=O)N[C@@H](Cc1ccc(O)cc1)C(=O)N[C@@H](Cc1ccccc1)C(=O)N1CCC[C@H]1C(=O)N[C@@H](CC(C)C)C(=O)N[C@@H](CCC(N)=O)C(=O)N[C@@H](CO)C(=O)N[C@@H](Cc1ccc(O)cc1)C(=O)NCC(=O)N[C@@H](Cc1ccccc1)C(=O)N[C@@H](CCC(N)=O)C(=O)N1CCC[C@H]1C(=O)N[C@H](C(=O)N[C@@H](CC(N)=O)C(=O)NCC(N)=O)[C@@H](C)O)C(C)C [Zeta] | 810 ± 60 | 0.76 ± 0.03 | 5.8 | the enthalpic and entropic contributions are of comparable magnitude within the experimental error | -8.31 ± 0.07 | -4.26 ± 0.24 | -4.06 ± 0.25 |
